Patent US20230053688A1, “METHODS TO ALTER LATENCY IN EBV+ MALIGNANCIES” (Cornell University, priority 2020, published 2023)

Experiments:
[1] = tested on: LMP1 and Cp transcripts in Kem I, Mutu I, and Rael cell lines; format: cell-based, EBV
[2] = tested on: LMP1 and EBNA3C proteins in BL cells; experiment: Immunoblot for viral proteins in BL cells; format: cell-based, EBV; settings: 48 hours
Description: Immunoblot was performed with the standard procedure using the following antibodies: β-actin (GeneTex), BZLF1 (Santa Cruz), EBNA1 (Santa Cruz), EBNA2 (AbCam), EBNA3C (gift from Benjamin Gewurz), GAPDH (GeneTex), and LMP1 (AbCam).
Since decitabine and 5-azacytadine were the top hits on the epigenetic screen, the effect of these agents on latency II/III transcript and protein expression was investigated as well as the dose-response in a panel of BL cell lines. BL cells were treated with decitabine or 5-azacytidine over a range of doses. Viral antigen expression was evaluated by qRT-PCR, immunoblot, and immunohistochemistry. […] This was associated with upregulation of LMP1 and EBNA3C proteins (FIG. 2B).

[3] = tested on: EBNA2 and LMP1 in Kem I cells; experiment: Immunohistochemistry on cell blocks with HALO quantification; format: cell-based, EBV; settings: decitabine at 500 nM, 48 hours
Description: (§1) Cell blocks were generated from cell lines in suspension by fixation in 10% formalin. Immunohistochemistry on cell blocks and mouse tumors was performed with the following antibodies: EBNA2 (abcam #ab90543), LMP1 (Dako #M0897), BZLF1 (Santa Cruz #SC-53904), CD8 (Leica #PA0183), PD-1 (Dako #M3653), PD-L1 (Cell Marque #315M-98). The Halo® image analysis software program (Indica Labs) was used to quantify immunohistochemical stains.
(§2) Next it was determined the percentage of cells that convert to expressing latency […] antigens after treatment with decitabine or 5-azacytadine. To do this, EBV antigen expression at the single-cell level was evaluated by immunohistochemistry (IHC) from cell blocks. Cells were treated with 5-azacytidine, decitabine, or vehicle control. Cell blocks were then evaluated by IHC for LMP1 and EBNA2. The percentage of positive cells was quantified with HALO image analysis. […] 5-azacytidine induced a more modest expression of EBNA2 and LMP1 across the three cell lines (FIGS. 2E-F). Based on these observations, decitabine was further investigated as a potential agent to induce expression of immunogenic viral antigens in latency I tumors.

[4] = tested on: EBNA2 and LMP1 in Mutu I cells; experiment: as above; format: cell-based, EBV; settings: decitabine at 500 nM, 48 hours
Description: as §1, §2

[5] = tested on: EBNA2 and LMP1 in Rael cells; experiment: as above; format: cell-based, EBV; settings: decitabine at 500 nM, 48 hours
Description: as §1, §2

[6] = tested on: Kem I xenografts; experiment: BL xenograft, immunohistochemistry of tumors for viral antigens; format: in vivo, mice
Description: as §1
(§3) To evaluate the effect of decitabine on viral antigen expression in-vivo, we generated Mutu I, Kem I, and Rael xenografts. Upon engraftment, mice were treated with a 7-day course of decitabine (0.5 mg/kg or 1 mg/kg daily) or vehicle control. After treatment tumors were evaluated by immunohistochemistry. Vehicle treated mice had minimal or no expression of EBNA2 and LMP1 (FIGS. 3A-B). […] LMP1 expression was increased in Kem xenografts (p=0.04, FIG. 3B).
(§4) In addition to modulating latent gene expression, 5-azacytidine is known to activate lytic programming in EBV (Bhende, Seaman et al. 2004, Chan, Tao et al. 2004, Bergbauer, Kalla et al. 2010, Kalla, Gobel et al. 2012, Woellmer, Arteaga-Salas et al. 2012). Upon exposure to 5-azacytidine, the Rael cell line generates lytic and latent antigens but in distinct cell populations (Masucci, Contreras-Salazar et al. 1989). To determine if the lytic program was being activated after exposure to decitabine qRT-PCR was performed for BZLF1, the gene responsible for activating early lytic genes in Rael, Mutu I, and Kem I cells. […] In the xenograft models, BLZF1 was evaluated by IHC.

[7] = tested on: Mutu I xenografts; experiment: as above; format: in vivo, mice
Description: as §1, §3, §4

[8] = tested on: Rael xenografts; experiment: as above; format: in vivo, mice
Description: as §1, §3
If induction of immunogenic antigens were to be used as therapeutic approach in EBV+ lymphomas, it would be important to ensure that the induction persists after removal of drug to allow time for an adequate T-cell response. The durability of latency III induction was evaluated by treating cell lines with 250 nM of decitabine for 3 days and then evaluating LMP1 and Cp promoter expression after washout of the drug. […] Rael xenografts were also evaluated for durability of induction in-vivo. […] Mice observed at later timepoints continued to express EBNA2 with some areas of tumor remaining EBNA2 positive as late as 63 days post-treatment (FIG. 4C).
In addition to modulating latent gene expression, 5-azacytidine is known to activate lytic programming in EBV (Bhende, Seaman et al. 2004, Chan, Tao et al. 2004, Bergbauer, Kalla et al. 2010, Kalla, Gobel et al. 2012, Woellmer, Arteaga-Salas et al. 2012).

[9] = tested on: BZLF1 in Rael, Mutu I, and Kem I cells; experiment: qRT-PCR for BZLF1 (lytic induction); format: cell-based, EBV; settings: all three cell lines
[10] = tested on: EBV genome in Kem I, Rael, and Mutu I cells; experiment: Quantitative DNA methylation analysis using MassARRAY EpiTYPER; format: cell-based; settings: 48 hours, all three latency I cell lines, including Cp promoter and LMP1/2 loci
[11] = tested on: first 13 kB of the EBV genome in Kem I, Rael, and Mutu I cells; experiment: Methyl-Capture sequencing of cell lines; format: cell-based
[12] = tested on: Rael cells; experiment: Cr51 release assay with EBV-CTLs; format: cell-based; settings: Rael cells treated at 250 nM for 72 hours, 25:1 effector to target ratio
[13] = tested on: Mutu I cells; experiment: Cr51 release assay with EBV-CTLs; format: cell-based; settings: Mutu I cells treated at 250 nM for 72 hours, 25:1 effector to target ratio
[14] = tested on: subcutaneous xenografts of Rael cells; format: in vivo, NSG mice
[15] = in vitro; settings: human, Mutu I cells
Description: (§5) Cell viability was determined using CellTiter-Glo (Promega) and the GloMax® Multi+ detection system (Promega).
(§6) Cell viability was determined using an ATP based luminescent assay (CellTiter-Glo, Promega) and the GloMax® Multi+ detection system (Promega). IC50 values were calculated using Prism 6 software.
(§7) To determine if induction of LMP1 and EBNA3 were linked to hypomethylating agent-induced cell death, cells were exposed to decitabine or 5-azacytadine over a range of doses and cell viability evaluated with the ATP-based Cell Titer-Glo® assay.

[16] = in vitro; settings: human, Rael cells
Description: as §5, §6, §7

[17] = tested on: Mutu I; experiment: Cell viability, CellTiter-Glo; settings: read-out: 48 Hour IC50
Description: as §5, §6, §7

[18] = Cell viability, CellTiter-Glo; settings: human, Kem I cells
Description: as §5, §6, §7

[19] = tested on: Kem I; experiment: Cell viability, CellTiter-Glo; settings: 48 h, read-out: 48 Hour IC50
Description: as §5, §6, §7

[20] = tested on: Rael; experiment: Cell viability, CellTiter-Glo; settings: read-out: 48 Hour IC50
Description: as §5, §6, §7

[21] = tested on: BL cells; experiment: Cell viability, CellTiter-Glo, statements for the BL cell panel
Description: as §5, §6, §7

SMILES: Nc1ncn([C@H]2C[C@H](O)[C@@H](CO)O2)c(=O)n1 [decitabine, 5-aza-2′-deoxycytidine]
- LMP1 and Cp expression by qRT-PCR after washout ([1]; 250 nM for 3 days, then 1, 3, 5, and 7 days after washout): persists with minimal decrement
- lowest dose with dose dependent induction of LMP1 and Cp transcripts ([1]; BL cells, 48 hours of treatment): 25 nM
- LMP1 and EBNA3C proteins (immunoblot) [2]: upregulation
- percentage of EBNA2 positive cells [3]: 57.8%
- percentage of LMP1 positive cells [3]: 54.9%
- percentage of EBNA2 positive cells [4]: 28.3%
- percentage of LMP1 positive cells [4]: 41.8%
- percentage of EBNA2 positive cells [5]: 37.2%
- percentage of LMP1 positive cells [5]: 27.4%
- LMP1 expression in tumors (IHC) ([6]; 7-day course, 0.5 mg/kg or 1 mg/kg daily IP, p=0.04): increased
- BZLF1 by IHC in tumors ([6]; Kem I xenograft, 7 days of treatment): minimal or no induction
- EBNA2 expression in tumors (IHC) ([7]; 7-day course, 0.5 mg/kg or 1 mg/kg daily IP, p=0.044): upregulation was observed
- BZLF1 by IHC in tumors ([7]; Mutu I xenograft, 7 days of treatment): induction was observed
- EBNA2 expression in tumors (IHC) ([8]; 7-day course, 0.5 mg/kg or 1 mg/kg daily IP, p=0.017): upregulation was observed
- BZLF1 by IHC in tumors ([8]; Rael xenograft, 7 days of treatment): minimal or no induction
- latest time with areas of tumor remaining EBNA2 positive ([8]; post-treatment): 63 days
- percentage of EBNA2 positive cells after discontinuation of drug ([8]; tumors evaluated 4 days after a 7-day course): persistent induction with no decrement
- BZLF1 (qRT-PCR) over time after removal of drug [9]: decreased over time after removal of drug
- BZLF1 (qRT-PCR) ([9]; after exposure for 72 hours): increase
- DNA methylation across the EBV viral genome (MassARRAY) [10]: loss of methylation
- methylation across the covered areas (Methyl-Capture sequencing) ([11]; after treatment, all three cell lines): global hypomethylation
- methylation after removal of drug (Methyl-Capture sequencing) ([11]; drug 48 hours followed by 7-day washout): remained hypomethylated
- % lysis by EBNA3C reactive EBV-CTLs [12]: 26.07%
- % lysis by EBNA3A reactive EBV-CTLs [13]: 16.17%
- % lysis by LMP1-reactive EBV-CTLs [13]: 74.11%
- latent antigens EBNA2 and LMP1 in tumors ([14]; daily for 7 days, 1 mg/kg): induction
- lytic protein BZLF1 in tumors ([14]; daily for 7 days, 1 mg/kg): minimal change
- PD-L1 expression in tumors ([14]; mouse, in vivo): did not increase
- viability [15]: 62%
- viability [16]: 102%
- IC50 [17]: > 5 µM
- viability [18]: 128%
- IC50 [19]: > 5 µM
- IC50 [20]: > 5 µM
- IC50 [21]: > 5 µM
